Source: ChEMBL document CHEMBL1201862, “PubChem BioAssay data set” (2004)
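Method: 48-hour compound exposure of cells in 96-well plates, five concentrations, linear interpolation of endpoints. GI50 = concentration required for 50% inhibition of growth.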 Activity calls are given as the source filed them. No stated cut-off is given here; in the data, active = GI50 up to about 1.1 µM and inactive = higher.

How the values were obtained:
Assay in all cases: NCI-60 cell line screen, 48 h
MDA-MB-231 = tested on: MDA-MB-231
UACC-62 = tested on: UACC-62
NCI-H460 = tested on: NCI-H460
NCI/ADR-RES = tested on: NCI/ADR-RES
NCI-H522 = tested on: NCI-H522
UACC-257 = tested on: UACC-257
RPMI-8226 = tested on: RPMI-8226
HCT-116 = tested on: HCT-116
SN12C = tested on: SN12C
SNB-19 = tested on: SNB-19
SR = tested on: SR
UO-31 = tested on: UO-31
DU-145 = tested on: DU-145
OVCAR-8 = tested on: OVCAR-8
IGROV-1 = tested on: IGROV-1
CAKI-1 = tested on: CAKI-1
MCF7 = tested on: MCF7
SF-539 = tested on: SF-539
SK-MEL-5 = tested on: SK-MEL-5
RXF 393 = tested on: RXF 393

Measured: GI50

CCOC(=O)c1cccc([N+](=O)[O-])c1N
inactive: MDA-MB-231 > 100 µM | UACC-62 > 100 µM | NCI-H460 > 100 µM | NCI/ADR-RES > 100 µM | NCI-H522 > 100 µM | UACC-257 > 100 µM | RPMI-8226 > 100 µM | HCT-116 > 100 µM | SN12C > 100 µM | SNB-19 > 100 µM | SR > 100 µM | UO-31 > 100 µM | DU-145 > 100 µM | OVCAR-8 > 100 µM | IGROV-1 > 100 µM | CAKI-1 > 100 µM | MCF7 > 100 µM | SF-539 > 100 µM | SK-MEL-5 > 100 µM

O=C(Nc1ccc(Cl)cc1)[C-](C(=O)c1ccc(Br)cc1)[n+]1cccc(-c2ccc(Cl)cc2)n1
inactive: MDA-MB-231 31.2 µM | UACC-62 3.85 µM | NCI-H460 3.44 µM | NCI/ADR-RES 3.53 µM | NCI-H522 2.26 µM | UACC-257 3.88 µM | RPMI-8226 3.81 µM | HCT-116 3.09 µM | SN12C 2.88 µM | SNB-19 8.41 µM | SR 2.27 µM | UO-31 5.87 µM | DU-145 5.45 µM | OVCAR-8 3.56 µM | IGROV-1 2.77 µM | CAKI-1 2.56 µM | MCF7 1.41 µM | SK-MEL-5 3.18 µM

O=C(C1OC1c1cccc([N+](=O)[O-])c1)C12CC3CC(CC(C3)C1)C2 (centres undefined)
inactive: MDA-MB-231 4.83 µM | UACC-62 3.74 µM | NCI-H460 4.06 µM | NCI/ADR-RES 3.24 µM | NCI-H522 3.81 µM | UACC-257 11.7 µM | RPMI-8226 2.13 µM | HCT-116 2.14 µM | SN12C 4.2 µM | SNB-19 8.13 µM | UO-31 8.26 µM | DU-145 13.8 µM | RXF 393 5.33 µM | OVCAR-8 2.25 µM | IGROV-1 6.53 µM | CAKI-1 8.83 µM | MCF7 2.86 µM | SF-539 8.79 µM | SK-MEL-5 10.5 µM

COc1cc(/C=C/C(=O)CC(=O)/C=C/c2cc(C)c(O)c(OC)c2)cc(C)c1O
inactive: MDA-MB-231 > 100 µM | UACC-62 > 100 µM | NCI-H460 > 100 µM | NCI/ADR-RES > 100 µM | NCI-H522 > 100 µM | UACC-257 > 100 µM | RPMI-8226 37.6 µM | HCT-116 58.3 µM | SN12C > 100 µM | SNB-19 > 100 µM | SR 6.82 µM | UO-31 > 100 µM | DU-145 > 100 µM | OVCAR-8 > 100 µM | IGROV-1 > 100 µM | CAKI-1 > 100 µM | MCF7 52.8 µM | SF-539 > 100 µM | SK-MEL-5 > 100 µM

COc1cc(/C=C2\CC3C4CC[C@H]5C[C@@H](O)CC[C@]5(C)C4CC[C@]3(C)\C2=N\O)cc(OC)c1OC (some centres undefined)
inactive: MDA-MB-231 14.3 µM | UACC-62 14.3 µM | NCI-H460 8.05 µM | NCI/ADR-RES 12.9 µM | NCI-H522 13.1 µM | UACC-257 10.7 µM | RPMI-8226 4.23 µM | HCT-116 6.19 µM | SN12C 13.7 µM | SNB-19 29.7 µM | UO-31 3.44 µM | DU-145 13.1 µM | RXF 393 7.74 µM | OVCAR-8 17.3 µM | IGROV-1 23 µM | CAKI-1 4.09 µM | MCF7 4.05 µM | SF-539 10.8 µM | SK-MEL-5 5.21 µM

COC(=O)c1ccc(/C=N/c2ccc(S(N)(=O)=O)cc2)cc1
inactive: MDA-MB-231 > 100 µM | UACC-62 60.3 µM | NCI-H460 > 100 µM | NCI/ADR-RES 58.5 µM | UACC-257 14.2 µM | RPMI-8226 30.9 µM | HCT-116 37.1 µM | SN12C 73.8 µM | SNB-19 > 100 µM | SR 43 µM | UO-31 74.5 µM | DU-145 > 100 µM | RXF 393 > 100 µM | OVCAR-8 89.1 µM | CAKI-1 > 100 µM | MCF7 41.8 µM | SF-539 38.2 µM | SK-MEL-5 > 100 µM

Oc1cnc2c(O)cccc2c1 [JINEOL]
inactive: MDA-MB-231 52 µM | UACC-62 32.7 µM | NCI-H460 31.9 µM | NCI/ADR-RES 18.2 µM | NCI-H522 19.2 µM | UACC-257 56.6 µM | RPMI-8226 38.1 µM | HCT-116 40.8 µM | SN12C 37.5 µM | SNB-19 58.9 µM | SR 40.6 µM | UO-31 30.8 µM | DU-145 57.3 µM | OVCAR-8 26.2 µM | IGROV-1 20.3 µM | MCF7 30.7 µM | SF-539 30.3 µM
